Molecular target: T1, recombinant human Estrogen Receptor alpha ligand binding domain, residues 307-554 (ER alpha-LBD (GST)) (Homo sapiens, UniProt P03372)
T1 construct: made in house
T1 sequence (P03372 307-554): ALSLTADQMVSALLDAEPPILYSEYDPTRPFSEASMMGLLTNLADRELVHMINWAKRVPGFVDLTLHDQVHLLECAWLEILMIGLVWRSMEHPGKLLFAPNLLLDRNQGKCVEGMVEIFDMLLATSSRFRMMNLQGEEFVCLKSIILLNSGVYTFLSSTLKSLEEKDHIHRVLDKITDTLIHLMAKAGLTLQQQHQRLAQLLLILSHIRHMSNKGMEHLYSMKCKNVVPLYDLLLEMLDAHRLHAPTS
Assay: ERα binding assay (LanthaScreen TR-FRET competition)
Conditions: TR-FRET competition with Fluormone ES2 tracer, 4 hours at room temperature; single experiment or average of two or more

## Cc1ncsc1-c1ccc([C@@H](CN)NC(=O)[C@@H]2C[C@@H](O)CN2C(=O)[C@@H](NC(=O)COCCOCCOCCOc2cc(F)c([C@@H]3c4[nH]c5ccccc5c4C[C@@H](C)N3CC(C)(C)F)c(F)c2)C(C)(C)C)cc1 [Example 106, (2S,4R)—N-[(1S)-2-amino-1-[4-(4-methylthiazol-5-yl)phenyl]ethyl]-1-[(2S)-2-[[2-[2-[2-[2-[3,5-difluoro-4-[(1R,3R)-2-(2-fluoro-2-methyl-propyl)-3-methyl-1,3,4,9-tetrahydropyrido[3,4-b]indol-1-yl]phenoxy]ethoxy]ethoxy]ethoxy]acetyl]amino]-3,3-dimethyl-butanoyl]-4-hydroxy-pyrrolidine-2-carboxamide]
  IC50: 800 pM

— patent US10519152B2, “Compounds and their use in treating cancer” (AstraZeneca AB, priority 2017, dated 2019)
